# Reference: ChEMBL document CHEMBL3779894, “Synthesis and in Vitro Screening of New Series of 2,6-Dipeptidyl-anthraquinones: Influence of Side Chain Length on HIV-1 Nucleocapsid Inhibitors” (J Med Chem, 2016)
# Activity calls are given as the source filed them. The calls are words filed in the database; no cut-off is given here.
# Experiments:
# [1] = system: Human immunodeficiency virus 1; assay: Binding affinity to HIV-1 cTAR DNA assessed as increase in melting temperature at 10 uM by fluorescence quenching assay
# [2] = Inhibition of recombinant full length HIV-1 nucleocapsid assessed as inhibition of nucleocapsid-mediated melting of cTAR DNA measured 3 times with 1 min interval by FRET based assay; parameters: species or system Human immunodeficiency virus 1
# [3] = Inhibition of recombinant full length HIV-1 nucleocapsid assessed as inhibition of nucleocapsid-mediated melting of TAR RNA measured 3 times with 1 min interval by FRET based assay; parameters: species or system Human immunodeficiency virus 1
# [4] = system: Human immunodeficiency virus 1; assay: Binding affinity to HIV-1 29-mer TAR RNA assessed as 3:1 compound-RNA complex formation at 10 uM by ESI-MS analysis
# [5] = system: Human immunodeficiency virus 1; assay: Binding affinity to HIV-1 29-mer TAR RNA assessed as increase in melting temperature at 10 uM by fluorescence quenching assay
# [6] = Inhibition of recombinant full length HIV-1 nucleocapsid assessed as inhibition of TAR RNA/cTAR DNA annealing preincubated with oligonucleotides for 15 mins followed by nucleocapsid addition measured after 15 mins by NAME assay; parameters: species or system Human immunodeficiency virus 1
# [7] = system: Human immunodeficiency virus 1; assay: Selectivity index, ratio of melting temperature for HIV-1 29-mer TAR RNA to HIV-1 cTAR DNA
# [8] = system: Human immunodeficiency virus 1; assay: Inhibition of recombinant full length HIV-1 nucleocapsid assessed as inhibition of TAR RNA /cTAR DNA annealing at 50 to 100 uM preincubated with oligonucleotides for 15 mins followed by nucleocapsid addition measured after 15 mins by NAME assay
# [9] = system: Human immunodeficiency virus 1; assay: Binding affinity to HIV-1 cTAR DNA assessed as 4:1 […] complex formation at 10 uM by ESI-MS analysis
# [10] = system: Human immunodeficiency virus 1; assay: Binding affinity to HIV-1 cTAR DNA-29-mer TAR RNA duplex assessed as increase in melting temperature at 10 uM by fluorescence quenching assay
# [11] = system: Human immunodeficiency virus 1; assay: Inhibition of recombinant full length HIV-1 nucleocapsid assessed as inhibition of TAR RNA/cTAR DNA annealing upto 100 uM preincubated with oligonucleotides for 15 mins followed by nucleocapsid addition measured after 15 mins by NAME assay
# [12] = system: Human immunodeficiency virus 1; assay: Binding affinity to HIV-1 29-mer TAR RNA assessed as 1:1 compound-RNA complex formation at 10 uM by ESI-MS analysis
# [13] = system: Human immunodeficiency virus 1; assay: Binding affinity to HIV-1 cTAR DNA assessed as 2:1 […] complex formation at 10 uM by ESI-MS analysis
# [14] = system: Human immunodeficiency virus 1; assay: Inhibition of recombinant full length HIV-1 nucleocapsid assessed as inhibition of TAR RNA /cTAR DNA annealing at 20 to 50 uM preincubated with oligonucleotides for 15 mins followed by nucleocapsid addition measured after 15 mins by NAME assay
# [15] = system: Human immunodeficiency virus 1; assay: Binding affinity to HIV-1 cTAR DNA at 10 uM by ESI-MS analysis
# [16] = system: Human immunodeficiency virus 1; assay: Binding affinity to HIV-1 29-mer TAR RNA at 10 uM by ESI-MS analysis
SMILES,Activity [1],IC50 [2],IC50 [3],Activity [4],Activity [5],IC50 [6],Ratio [7],inhibition [8],Activity [9],Activity [10],inhibition [11],Activity [12],Activity [13],inhibition [14],Activity [15],Activity [16]
C[C@H](NC(=O)C(N)CCCN)C(=O)Nc1ccc2c(c1)C(=O)c1ccc(NC(=O)[C@H](C)NC(=O)C(N)CCCN)cc1C2=O (some centres undefined),Active,1.93 µM,4.91 µM,Active,Active,49.1 µM,0.58,Active,Active,Active,–,–,–,–,–,–
C[C@H](NC(=O)C1(N)CCNCC1)C(=O)Nc1ccc2c(c1)C(=O)c1ccc(NC(=O)[C@H](C)NC(=O)C3(N)CCNCC3)cc1C2=O,–,14.6 µM,40.2 µM,–,–,–,–,–,–,–,inactive,–,–,–,–,–
C[C@H](NC(=O)C(N)Cc1ccc(N)cc1)C(=O)Nc1ccc2c(c1)C(=O)c1ccc(NC(=O)[C@H](C)NC(=O)C(N)Cc3ccc(N)cc3)cc1C2=O (some centres undefined),–,7.53 µM,7.29 µM,–,–,–,–,–,–,–,inactive,–,–,–,–,–
C[C@H](NC(=O)C(N)CCN)C(=O)Nc1ccc2c(c1)C(=O)c1ccc(NC(=O)[C@H](C)NC(=O)C(N)CCN)cc1C2=O (some centres undefined),Active,4.28 µM,6.9 µM,–,Active,> 100 µM,0.5,–,–,Active,inactive,–,–,–,–,–
C[C@H](NC(=O)C(N)CCCCN)C(=O)Nc1ccc2c(c1)C(=O)c1ccc(NC(=O)[C@H](C)NC(=O)C(N)CCCCN)cc1C2=O (some centres undefined),Active,2.68 µM,6.61 µM,Active,Active,80.4 µM,0.56,Active,Active,Active,–,–,–,–,–,–
C[C@H](NC(=O)C1CCNCC1)C(=O)Nc1ccc2c(c1)C(=O)c1ccc(NC(=O)[C@H](C)NC(=O)C3CCNCC3)cc1C2=O,–,12 µM,20.8 µM,–,–,–,–,–,–,–,inactive,Active,Active,–,–,–
NCCCC(N)C(=O)NCC(=O)Nc1ccc2c(c1)C(=O)c1ccc(NC(=O)CNC(=O)C(N)CCCN)cc1C2=O (centres undefined),Active,1.81 µM,2.62 µM,Active,Active,54.1 µM,0.72,–,–,Active,–,–,–,Active,Active,–
O=C(CNC(=O)C1CCNCC1)Nc1ccc2c(c1)C(=O)c1ccc(NC(=O)CNC(=O)C3CCNCC3)cc1C2=O,Active,10.7 µM,10.7 µM,–,Active,–,–,–,–,Active,inactive,Active,Active,–,–,–
C[C@H](NC(=O)[C@H]1CC[C@H](CN)CC1)C(=O)Nc1ccc2c(c1)C(=O)c1ccc(NC(=O)[C@H](C)NC(=O)[C@H]3CC[C@H](CN)CC3)cc1C2=O,–,14.6 µM,14.8 µM,–,–,–,–,–,–,–,inactive,–,–,–,–,–
NCCC(=O)NCC(=O)Nc1ccc2c(c1)C(=O)c1ccc(NC(=O)CNC(=O)CCN)cc1C2=O,Active,4.06 µM,6.42 µM,–,Active,> 100 µM,–,Active,–,Active,–,–,–,–,–,–
NCCCCC(N)C(=O)NCC(=O)Nc1ccc2c(c1)C(=O)c1ccc(NC(=O)CNC(=O)C(N)CCCCN)cc1C2=O (centres undefined),Active,1.11 µM,2.12 µM,–,Active,23.5 µM,0.72,–,–,Active,–,–,–,Active,Active,Active
NCC(N)C(=O)NCC(=O)Nc1ccc2c(c1)C(=O)c1ccc(NC(=O)CNC(=O)C(N)CN)cc1C2=O (centres undefined),Active,3.81 µM,4.22 µM,–,Active,103 µM,–,Active,–,Active,–,–,–,–,–,–
NCCC(N)C(=O)NCC(=O)Nc1ccc2c(c1)C(=O)c1ccc(NC(=O)CNC(=O)C(N)CCN)cc1C2=O (centres undefined),Active,4.61 µM,3.87 µM,–,Active,81.4 µM,0.97,Active,–,Active,–,–,–,–,–,–
NC1(C(=O)NCC(=O)Nc2ccc3c(c2)C(=O)c2ccc(NC(=O)CNC(=O)C4(N)CCNCC4)cc2C3=O)CCNCC1,Active,5.13 µM,7.79 µM,–,Active,> 100 µM,–,Active,–,Active,–,–,–,–,–,–
C[C@H](NC(=O)CCN)C(=O)Nc1ccc2c(c1)C(=O)c1ccc(NC(=O)[C@H](C)NC(=O)CCN)cc1C2=O,–,12.7 µM,39.5 µM,–,–,–,–,–,–,–,inactive,–,–,–,–,–
C[C@H](NC(=O)C(N)CN)C(=O)Nc1ccc2c(c1)C(=O)c1ccc(NC(=O)[C@H](C)NC(=O)C(N)CN)cc1C2=O (some centres undefined),inactive,44.1 µM,67.1 µM,–,inactive,–,–,–,–,–,inactive,–,–,–,–,–
Nc1ccc(CC(N)C(=O)NCC(=O)Nc2ccc3c(c2)C(=O)c2ccc(NC(=O)CNC(=O)C(N)Cc4ccc(N)cc4)cc2C3=O)cc1 (centres undefined),inactive,7.78 µM,7.72 µM,–,inactive,> 100 µM,–,–,–,inactive,inactive,–,–,–,–,–
NC[C@H]1CC[C@H](C(=O)NCC(=O)Nc2ccc3c(c2)C(=O)c2ccc(NC(=O)CNC(=O)[C@H]4CC[C@H](CN)CC4)cc2C3=O)CC1,inactive,9.75 µM,11.3 µM,–,inactive,–,–,–,–,inactive,–,–,–,–,–,–
